Measurements reported in patent US10870647B2, “Imidazopyridine derivative, method for preparing same, and pharmaceutical composition containing same as active ingredient for preventing or treating cancer” (DAEGU-GYEONGBUK MEDICAL INNOVATION FOUNDATION, priority 2016, dated 2020).
Read-outs that look alike come from different tables or passages of the source.

How the values were obtained:
Experiment in all cases: Kinase selectivity, scanMAX Kinase assay panel (DiscoverX), % control at 1 uM
Assay type in all cases: binding
[1] = molecular target: T1, scanMAX Kinase assay panel (Homo sapiens, UniProt P08581); conditions: MET; 1 uM; read-out: Percent Control (%)
T1 construct: purchased DiscoverX
T1 sequence (P08581 25-1390): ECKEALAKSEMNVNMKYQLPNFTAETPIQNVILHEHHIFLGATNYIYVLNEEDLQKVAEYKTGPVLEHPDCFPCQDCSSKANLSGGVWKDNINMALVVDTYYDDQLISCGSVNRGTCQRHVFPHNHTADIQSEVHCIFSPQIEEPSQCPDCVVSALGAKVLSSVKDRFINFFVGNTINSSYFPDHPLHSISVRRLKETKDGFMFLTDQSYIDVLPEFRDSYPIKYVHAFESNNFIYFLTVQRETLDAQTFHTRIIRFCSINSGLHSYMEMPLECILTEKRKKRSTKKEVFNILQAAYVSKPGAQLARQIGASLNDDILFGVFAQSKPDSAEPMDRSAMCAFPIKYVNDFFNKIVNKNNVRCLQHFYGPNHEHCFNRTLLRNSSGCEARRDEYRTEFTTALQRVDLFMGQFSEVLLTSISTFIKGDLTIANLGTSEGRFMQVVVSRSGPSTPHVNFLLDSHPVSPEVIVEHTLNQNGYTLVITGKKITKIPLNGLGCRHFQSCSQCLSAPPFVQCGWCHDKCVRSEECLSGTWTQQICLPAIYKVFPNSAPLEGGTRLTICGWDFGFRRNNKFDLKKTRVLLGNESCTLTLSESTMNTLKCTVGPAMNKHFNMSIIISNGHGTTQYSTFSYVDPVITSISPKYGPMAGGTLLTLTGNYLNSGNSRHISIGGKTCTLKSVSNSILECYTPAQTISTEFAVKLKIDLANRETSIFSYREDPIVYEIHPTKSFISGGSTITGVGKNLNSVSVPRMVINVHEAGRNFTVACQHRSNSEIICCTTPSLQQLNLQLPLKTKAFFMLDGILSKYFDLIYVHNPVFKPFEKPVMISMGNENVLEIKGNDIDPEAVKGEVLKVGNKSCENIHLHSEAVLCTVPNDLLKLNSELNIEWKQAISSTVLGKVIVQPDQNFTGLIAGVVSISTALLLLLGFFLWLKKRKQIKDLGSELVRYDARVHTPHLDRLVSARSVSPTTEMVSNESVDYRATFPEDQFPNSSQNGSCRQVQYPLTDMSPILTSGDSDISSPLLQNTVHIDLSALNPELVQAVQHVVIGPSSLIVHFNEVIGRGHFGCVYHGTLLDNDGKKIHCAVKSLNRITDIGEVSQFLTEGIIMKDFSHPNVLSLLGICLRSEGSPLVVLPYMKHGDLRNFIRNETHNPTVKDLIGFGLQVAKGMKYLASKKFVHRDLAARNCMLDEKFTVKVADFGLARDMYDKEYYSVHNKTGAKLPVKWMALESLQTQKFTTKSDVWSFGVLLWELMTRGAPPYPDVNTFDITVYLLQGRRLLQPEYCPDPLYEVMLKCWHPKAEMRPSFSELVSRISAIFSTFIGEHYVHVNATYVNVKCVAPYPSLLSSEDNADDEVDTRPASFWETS
Procedure, shortened: (§1)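 Compounds were tested at 1 uM in DMSO against each enzyme in the panel. Percent control was calculated as (compound − positive control)/(negative control − positive control) × 100, and a compound was scored active on a kinase when this value fell below 35.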

[2] = molecular target: T2, scanMAX Kinase assay panel (Homo sapiens, UniProt Q13882); conditions: BRK; 1 uM; read-out: Percent Control (%)
T2 construct: purchased DiscoverX
T2 sequence (Q13882 whole entry): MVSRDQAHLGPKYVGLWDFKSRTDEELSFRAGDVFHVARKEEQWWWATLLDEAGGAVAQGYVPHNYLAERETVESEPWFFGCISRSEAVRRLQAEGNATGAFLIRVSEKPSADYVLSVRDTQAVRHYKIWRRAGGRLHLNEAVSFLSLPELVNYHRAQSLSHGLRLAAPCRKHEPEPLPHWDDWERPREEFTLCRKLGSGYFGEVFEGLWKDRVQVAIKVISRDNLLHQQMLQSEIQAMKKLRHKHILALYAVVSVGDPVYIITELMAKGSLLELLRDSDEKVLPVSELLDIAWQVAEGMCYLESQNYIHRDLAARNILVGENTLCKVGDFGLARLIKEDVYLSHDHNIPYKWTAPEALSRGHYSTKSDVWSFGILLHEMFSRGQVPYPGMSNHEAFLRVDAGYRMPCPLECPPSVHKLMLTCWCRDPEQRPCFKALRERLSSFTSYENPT
Procedure, shortened: as §1

[3] = molecular target: T3, scanMAX Kinase assay panel (Homo sapiens, UniProt P00519, T315I); conditions: 1 uM, read-out: Percent Control (%)
T3 construct: purchased DiscoverX
Procedure, shortened: as §1

[4] = molecular target: T4, scanMAX Kinase assay panel (Homo sapiens, UniProt O14733); conditions: MKK7; 1 uM; read-out: Percent Control (%)
T4 construct: purchased DiscoverX
T4 sequence (O14733 1-419): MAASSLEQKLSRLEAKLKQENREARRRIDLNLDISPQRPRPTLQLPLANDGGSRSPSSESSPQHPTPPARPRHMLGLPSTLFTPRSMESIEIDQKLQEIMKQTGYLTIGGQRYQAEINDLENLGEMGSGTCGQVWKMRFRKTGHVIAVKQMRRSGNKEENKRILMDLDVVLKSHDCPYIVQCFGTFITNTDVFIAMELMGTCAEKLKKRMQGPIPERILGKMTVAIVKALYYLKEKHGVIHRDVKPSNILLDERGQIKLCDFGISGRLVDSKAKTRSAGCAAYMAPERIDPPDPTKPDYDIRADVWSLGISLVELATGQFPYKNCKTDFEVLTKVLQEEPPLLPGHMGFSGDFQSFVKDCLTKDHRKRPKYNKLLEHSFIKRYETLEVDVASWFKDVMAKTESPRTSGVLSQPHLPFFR
Procedure, shortened: as §1

[5] = molecular target: T5, scanMAX Kinase assay panel (Homo sapiens, UniProt Q9BXA7); conditions: TSSK1B; 1 uM; read-out: Percent Control (%)
T5 construct: purchased DiscoverX
T5 sequence (Q9BXA7 1-367): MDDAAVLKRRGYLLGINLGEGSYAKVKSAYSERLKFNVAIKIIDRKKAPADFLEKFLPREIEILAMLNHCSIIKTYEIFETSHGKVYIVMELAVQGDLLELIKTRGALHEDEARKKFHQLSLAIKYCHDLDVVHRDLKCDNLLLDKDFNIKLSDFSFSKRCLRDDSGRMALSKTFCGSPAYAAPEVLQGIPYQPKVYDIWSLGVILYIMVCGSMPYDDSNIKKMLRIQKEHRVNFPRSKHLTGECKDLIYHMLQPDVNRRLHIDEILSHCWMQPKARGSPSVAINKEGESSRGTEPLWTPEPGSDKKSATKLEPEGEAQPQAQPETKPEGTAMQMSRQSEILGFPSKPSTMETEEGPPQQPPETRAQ
Procedure, shortened: as §1

[6] = molecular target: T6, scanMAX Kinase assay panel (Homo sapiens, UniProt Q8NFD2); conditions: ANKK1; 1 uM; read-out: Percent Control (%)
T6 construct: purchased DiscoverX
T6 sequence (Q8NFD2 1-765): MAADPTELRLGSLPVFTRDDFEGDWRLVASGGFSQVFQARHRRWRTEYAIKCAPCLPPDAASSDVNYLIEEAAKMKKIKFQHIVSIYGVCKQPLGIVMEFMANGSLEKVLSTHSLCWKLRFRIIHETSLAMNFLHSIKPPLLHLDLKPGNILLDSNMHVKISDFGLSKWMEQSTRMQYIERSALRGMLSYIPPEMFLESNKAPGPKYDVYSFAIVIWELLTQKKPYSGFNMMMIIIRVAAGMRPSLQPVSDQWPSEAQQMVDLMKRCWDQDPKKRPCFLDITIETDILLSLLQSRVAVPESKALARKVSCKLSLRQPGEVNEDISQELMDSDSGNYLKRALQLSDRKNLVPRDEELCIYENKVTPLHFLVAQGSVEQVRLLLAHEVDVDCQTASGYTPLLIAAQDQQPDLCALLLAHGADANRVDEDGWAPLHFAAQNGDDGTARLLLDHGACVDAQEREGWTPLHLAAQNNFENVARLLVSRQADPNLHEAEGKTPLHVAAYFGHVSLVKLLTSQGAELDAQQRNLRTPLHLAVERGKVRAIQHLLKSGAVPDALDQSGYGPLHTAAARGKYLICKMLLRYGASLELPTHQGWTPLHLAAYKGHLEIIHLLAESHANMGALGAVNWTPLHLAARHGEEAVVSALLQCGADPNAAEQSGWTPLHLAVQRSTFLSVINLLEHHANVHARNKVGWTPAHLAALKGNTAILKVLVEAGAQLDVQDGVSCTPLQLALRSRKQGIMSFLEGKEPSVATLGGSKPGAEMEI
Procedure, shortened: as §1

[7] = molecular target: T7, scanMAX Kinase assay panel (Homo sapiens, UniProt P07949, V804M); conditions: RET (V804M); 1 uM; read-out: Percent Control (%)
T7 construct: purchased DiscoverX
T7 sequence (P07949 29-1114 V804M): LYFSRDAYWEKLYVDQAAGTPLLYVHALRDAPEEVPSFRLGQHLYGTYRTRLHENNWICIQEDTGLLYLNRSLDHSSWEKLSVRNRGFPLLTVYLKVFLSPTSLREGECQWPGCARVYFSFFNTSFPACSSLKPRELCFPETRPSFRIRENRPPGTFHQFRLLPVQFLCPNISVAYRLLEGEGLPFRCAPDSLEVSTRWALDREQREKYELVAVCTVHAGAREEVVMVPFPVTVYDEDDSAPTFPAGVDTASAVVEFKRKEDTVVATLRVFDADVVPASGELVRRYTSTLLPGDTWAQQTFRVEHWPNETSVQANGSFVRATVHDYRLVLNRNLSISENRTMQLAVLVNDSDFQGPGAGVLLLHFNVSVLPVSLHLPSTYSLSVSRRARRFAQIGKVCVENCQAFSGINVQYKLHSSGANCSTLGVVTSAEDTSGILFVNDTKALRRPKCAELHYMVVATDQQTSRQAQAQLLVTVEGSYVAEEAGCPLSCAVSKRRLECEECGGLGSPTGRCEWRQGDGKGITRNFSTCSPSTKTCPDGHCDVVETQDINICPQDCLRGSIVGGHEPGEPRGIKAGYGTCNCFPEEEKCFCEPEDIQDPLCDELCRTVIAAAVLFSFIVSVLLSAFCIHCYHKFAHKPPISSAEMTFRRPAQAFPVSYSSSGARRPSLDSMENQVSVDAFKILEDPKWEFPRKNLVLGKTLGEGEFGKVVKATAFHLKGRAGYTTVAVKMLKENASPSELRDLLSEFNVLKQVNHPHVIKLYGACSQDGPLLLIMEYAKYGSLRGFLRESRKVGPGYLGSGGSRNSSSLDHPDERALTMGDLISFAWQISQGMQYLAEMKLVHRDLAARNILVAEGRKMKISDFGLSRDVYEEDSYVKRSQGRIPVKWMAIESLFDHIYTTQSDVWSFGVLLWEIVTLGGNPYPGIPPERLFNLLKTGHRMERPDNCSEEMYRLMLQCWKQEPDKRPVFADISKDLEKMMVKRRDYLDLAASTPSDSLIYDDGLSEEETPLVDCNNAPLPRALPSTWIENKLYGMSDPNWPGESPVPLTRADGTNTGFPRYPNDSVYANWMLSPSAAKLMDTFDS
Procedure, shortened: as §1

[8] = molecular target: T8, scanMAX Kinase assay panel (Homo sapiens, UniProt Q92918); conditions: HPK1; 1 uM; read-out: Percent Control (%)
T8 construct: purchased DiscoverX
T8 sequence (Q92918 whole entry): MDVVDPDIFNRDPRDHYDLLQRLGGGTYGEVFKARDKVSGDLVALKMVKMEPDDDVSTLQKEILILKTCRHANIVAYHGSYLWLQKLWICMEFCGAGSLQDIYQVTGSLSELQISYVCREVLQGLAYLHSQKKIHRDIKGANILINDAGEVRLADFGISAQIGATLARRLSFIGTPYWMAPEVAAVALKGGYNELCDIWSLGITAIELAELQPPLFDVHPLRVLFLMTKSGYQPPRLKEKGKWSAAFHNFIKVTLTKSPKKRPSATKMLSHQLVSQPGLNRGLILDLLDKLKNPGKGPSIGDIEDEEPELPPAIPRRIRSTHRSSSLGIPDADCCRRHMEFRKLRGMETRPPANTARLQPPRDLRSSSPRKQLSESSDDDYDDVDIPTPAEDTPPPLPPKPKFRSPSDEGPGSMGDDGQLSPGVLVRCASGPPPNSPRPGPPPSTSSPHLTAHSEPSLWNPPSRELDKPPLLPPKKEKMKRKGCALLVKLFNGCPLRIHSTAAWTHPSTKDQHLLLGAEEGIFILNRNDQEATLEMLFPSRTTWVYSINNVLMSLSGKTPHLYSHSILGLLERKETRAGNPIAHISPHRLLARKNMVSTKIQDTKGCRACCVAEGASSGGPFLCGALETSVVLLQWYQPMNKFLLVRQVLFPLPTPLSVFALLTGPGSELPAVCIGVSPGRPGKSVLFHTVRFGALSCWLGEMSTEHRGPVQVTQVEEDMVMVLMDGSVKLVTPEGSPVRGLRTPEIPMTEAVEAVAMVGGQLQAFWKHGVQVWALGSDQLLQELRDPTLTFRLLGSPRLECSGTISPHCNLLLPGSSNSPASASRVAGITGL
Procedure, shortened: as §1

[9] = molecular target: T9, scanMAX Kinase assay panel (Homo sapiens, UniProt P06241); conditions: FYN; 1 uM; read-out: Percent Control (%)
T9 construct: purchased DiscoverX
Procedure, shortened: as §1

[10] = molecular target: T10, scanMAX Kinase assay panel (Homo sapiens, UniProt P04626); conditions: ERBB2; 1 uM; read-out: Percent Control (%)
T10 construct: purchased DiscoverX
Procedure, shortened: as §1

[11] = molecular target: T11, scanMAX Kinase assay panel (Homo sapiens, UniProt P00533, DEL752-759); conditions: EGFR (S752-I759del); 1 uM; read-out: Percent Control (%)
T11 construct: purchased DiscoverX
T11 sequence (P00533 with tags, fused parts or gaps DEL752-759): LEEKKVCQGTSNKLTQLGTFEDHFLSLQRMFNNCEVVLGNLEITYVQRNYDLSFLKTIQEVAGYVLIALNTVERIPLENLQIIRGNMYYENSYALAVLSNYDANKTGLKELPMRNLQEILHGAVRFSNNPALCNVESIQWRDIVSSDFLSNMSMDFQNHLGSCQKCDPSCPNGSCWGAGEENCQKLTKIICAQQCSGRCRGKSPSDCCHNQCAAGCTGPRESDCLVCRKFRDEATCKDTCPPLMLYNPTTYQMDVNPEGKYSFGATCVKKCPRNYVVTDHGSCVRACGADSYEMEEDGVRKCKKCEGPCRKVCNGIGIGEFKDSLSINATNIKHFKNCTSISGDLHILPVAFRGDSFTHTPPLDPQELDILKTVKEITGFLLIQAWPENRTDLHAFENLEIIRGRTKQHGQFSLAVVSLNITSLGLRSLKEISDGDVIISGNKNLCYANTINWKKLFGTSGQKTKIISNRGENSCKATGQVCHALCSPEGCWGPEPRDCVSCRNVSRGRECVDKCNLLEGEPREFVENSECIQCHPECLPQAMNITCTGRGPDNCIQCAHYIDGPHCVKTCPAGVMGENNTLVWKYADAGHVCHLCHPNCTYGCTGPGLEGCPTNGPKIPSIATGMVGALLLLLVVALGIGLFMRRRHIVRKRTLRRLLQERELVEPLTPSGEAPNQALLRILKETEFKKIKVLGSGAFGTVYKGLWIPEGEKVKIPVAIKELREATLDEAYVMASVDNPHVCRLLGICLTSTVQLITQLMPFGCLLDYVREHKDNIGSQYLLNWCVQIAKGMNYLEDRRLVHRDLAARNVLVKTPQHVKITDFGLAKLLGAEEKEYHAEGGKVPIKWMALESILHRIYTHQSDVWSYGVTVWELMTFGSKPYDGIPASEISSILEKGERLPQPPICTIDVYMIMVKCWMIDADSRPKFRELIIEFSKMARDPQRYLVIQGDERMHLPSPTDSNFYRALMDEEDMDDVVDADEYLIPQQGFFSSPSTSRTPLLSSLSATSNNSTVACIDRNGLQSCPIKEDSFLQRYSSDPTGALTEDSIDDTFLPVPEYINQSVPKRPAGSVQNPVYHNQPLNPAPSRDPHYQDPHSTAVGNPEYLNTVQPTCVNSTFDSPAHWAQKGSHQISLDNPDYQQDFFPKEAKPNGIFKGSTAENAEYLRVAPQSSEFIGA
Procedure, shortened: as §1

Row | SMILES | remaining binding at 1 µM [1] | remaining binding at 1 µM [2] | remaining binding at 1 µM ([3]; ABL1 (T315I)-nonphosphorylated) | remaining binding at 1 µM ([3]; ABL1 (T315I)-phosphorylated) | remaining binding at 1 µM [4] | remaining binding at 1 µM [5] | remaining binding at 1 µM [6] | remaining binding at 1 µM [7] | remaining binding at 1 µM [8] | remaining binding at 1 µM [9] | remaining binding at 1 µM [10] | remaining binding at 1 µM [11]
1 | Cc1ccc(C(=O)Nc2ccc(CN3CCN(C)CC3)c(C(F)(F)F)c2)cc1C#Cc1cnc2c(Nc3cnn(C)c3)cccn12 [Example 1, 4-methyl-3-((8-((1-methyl-1H-pyrazol-4-yl)amino)imidazo[1,2-a]pyridin-3-yl)ethynyl)-N-(4-((4-methylpiperazin-1-yl)methyl)-3-(trifluoromethyl)phenyl)benzamide] | 18% | 23% | 1% | 1% | 90% | 95% | 4% | 0% | 1% | 1% | 1% | 7%
2 | Cc1cn(-c2cc(NC(=O)c3ccc(C)c(C#Cc4cnc5c(Nc6cnn(C)c6)cccn45)c3)cc(C(F)(F)F)c2)cn1 [Example 12, 4-methyl-N-(3-(4-methyl-1H-imidazol-1-yl)-5-(trifluoromethyl)phenyl)-3-((8-((1-methyl-1H-pyrazol-4-yl)amino)imidazo[1,2-a]pyridin-3-yl)ethynyl)benzamide] | 47% | 68% | 15% | 15% | 100% | 61% | 100% | 1% | 5% | 15% | 68% | 8%
3 | Cc1ccc(NC(=O)C2(C(=O)Nc3ccc(F)cc3)CC2)cc1C#Cc1cnc2c(Nc3cnn(C(C)C)c3)cccn12 [Example 78] | 100% | 99% | 100% | 100% | 99% | 100% | 97% | 100% | 78% | 84% | 81% | 100%
